The species named for data set [1] is Cavia porcellus. The data set is described as follows: Schultz-Dale (SD) reaction in tracheal strip isolated from passively sensitized guinea pigs. The class given is functional.
Data set [2] deals with Mus musculus. As to the kind of experiment: Acute lethal toxicity in mice on peroral administration. The class given is organism-based. The conditions noted are these: in vivo, po.
The subject of data set [3] is Cavia porcellus. As to the kind of experiment: Mean collapse time in antigen induced bronchospasm in passively sensitized guinea pigs at 10 mg/kg peroral dose. The class given is functional. The conditions noted are these: route oral.
In data set [4] the target is Phosphodiesterase 4 (Canis familiaris). The data set is described as follows: Inhibition of Canine Tracheal Smooth Muscle PDE 4.
The test system of data set [5] is Cavia porcellus. As to the kind of experiment: Mean collapse time in antigen induced bronchospasm in passively sensitized guinea pigs at 50 mg/kg peroral dose. The class given is functional. The conditions noted are these: route oral.
The species entered for data set [6] is Cavia porcellus. As to the kind of experiment: Effect on carbachol induced contraction of guinea pig tracheal strips. The class given is functional. The conditions noted are these: Trachea.
The target of data set [7] is Phosphodiesterase 4 (Canis familiaris). As to the kind of experiment: Inhibition of Canine Tracheal Smooth Muscle PDE 4. The source holds these as a separate data set.
Data set [8] is filed under the species Cavia porcellus. The data set is described as follows: Effect on LTD4 induced contraction of guinea pig tracheal strips. The class given is functional. The conditions noted are these: Trachea.
Data set [9] relates to Cavia porcellus. The data set is described as follows: Mean collapse time in antigen induced bronchospasm in passively sensitized guinea pigs at 5 mg/kg peroral dose. The following applies: route oral. The class given is functional.
Data set [10] has as its system Cavia porcellus. As to the kind of experiment: Mean collapse time in antigen induced bronchospasm in passively sensitized guinea pigs at 0.50 mg/kg peroral dose. The class given is functional. The conditions noted are these: dose 0.5 mg/kg; route oral.
Data set [11] has as its system Cavia porcellus. The data set is described as follows: Mean collapse time in antigen induced bronchospasm in passively sensitized guinea pigs at 0.1 mg/kg peroral dose. The following applies: route oral. The class given is functional.
Data set [12] deals with Cavia porcellus. As to the kind of experiment: Mean collapse time in antigen induced bronchospasm in passively sensitized guinea pigs at 1 mg/kg peroral dose. The class given is functional. The following applies: route oral.
The species entered for data set [13] is Cavia porcellus. The data set is described as follows: Effect on histamine induced contraction of guinea pig tracheal strips. The class given is functional. The following applies: Trachea.
The test system of data set [14] is Cavia porcellus. As to the kind of experiment: Mean collapse time in antigen induced bronchospasm in passively sensitized guinea pigs at 25 mg/kg peroral dose. The class given is functional. The conditions noted are these: route oral.

pIC50: −log10 of the molar value. Some results are limits rather than exact numbers.

One may read the pIC50 as the negative decadic logarithm of the IC50, by convention in mol/L. Regarding `Cn1cnc2c(=O)n(-c3ccccc3)c3ncccc3c21`, in [1], the pIC50 was below 4.52.
Regarding `Oc1c2ncnc-2c2ccccc2n1-c1ccccc1`, the pIC50 in [1] is below 4.52.
Broadly, the IC50 is the concentration that inhibits the measured activity by half. The low end stands for inhibition by little substance, the high end for a need for much substance. In turn, `CCCCn1c(=O)c2c(ncn2C)c2cccnc21` came in with an MLD in data set [2] of 200 mg/kg. Besides, in data set [3], the MCT is 215 s. Besides, the pIC50 in data set [1] is 5.45. The IC50 in [4] is 3.6 µM.
`COc1cccc(-n2c(O)c3ncnc-3c3cccnc32)c1`: the pIC50 in data set [1] is below 4.52.
Still for that read-out and setting: next, `Oc1c2ncnc-2c2cccnc2n1-c1cccc(Cl)c1`: below 4.52; `CCOC(=O)c1ccc(-n2c(O)c3ncnc-3c3cccnc32)cc1`: below 4.52; `Oc1c2nnnc-2c2cccnc2n1-c1ccccc1`: below 4.52.
With `Oc1c2nc(-c3ccccc3)nc-2c2cccnc2n1-c1ccccc1`, in data set [1], the pIC50 is below 4.52.
On the same count and under the same terms, in the case of `CCN(CC)CCCn1cnc2c3cccnc3n(-c3ccccc3)c(=O)c21` it was below 4.52.
The same measure, in the same setting: in the case of `O=c1c2c(ncn2CCCN2CCOCC2)c2cccnc2n1-c1ccccc1` it was below 4.52.
`CCn1cnc2c3cccnc3n(-c3ccccc3)c(=O)c21` had an MLD in [2] of 100 mg/kg. In addition, the pIC50 in [1] was 6.33. Besides, in data set [4], the IC50 came out at 2 µM.
The molecule `Cn1cnc2c3cccnc3n(-c3ccccc3)c(=O)c21` showed an MLD in data set [2] of 100 mg/kg. Further, the MCT in [3] was found to be 543 s. For the same molecule, in data set [1], the negative-log IC50 (pIC50) was 6.66. Also, in data set [4], the IC50 is 6.6 µM.
With `CC(C)n1cnc2c3cccnc3n(-c3ccccc3)c(=O)c21`, in [2], the MLD worked out at 200 mg/kg. Besides, in data set [1], the pIC50 was 5.30. For the same molecule, in data set [4], the IC50 was found to be 2.5 µM.
Turning to `CC(C)Cn1cnc2c3cccnc3n(-c3ccccc3)c(=O)c21`, the MLD in data set [2] was 300 mg/kg. Also, the MCT in data set [3] came to 551 s. In data set [1], the pIC50 is 5.17. The molecule further came in with an IC50 in data set [4] of 0.15 µM.
Molecule `CCCCn1c(=O)c2ncn(C)c2c2cccnc21` registered an MLD in data set [2] of 300 mg/kg. Also, the MCT in data set [3] is 335 s. For the same molecule, the pIC50 in data set [1] is 4.89.
With `Cc1cccc(-n2c(O)c3ncnc-3c3cccnc32)c1`, the pIC50 in [1] is below 4.52.
On the same count and under the same terms, in the case of `Cc1ccc(-n2c(O)c3ncnc-3c3cccnc32)cc1` it was below 4.52; in that of `CCOC(=O)c1cccc(-n2c(O)c3ncnc-3c3cccnc32)c1`, below 4.52.
Regarding `CCCCn1c(O)c2ncnc-2c2cccnc21`, the pIC50 in [1] is below 4.52.
As for `Cc1nc2c(O)n(-c3ccccc3)c3ncccc3c-2n1`, in data set [1], the pIC50 is below 4.52.
Same read-out and setting: in the case of `COc1ccc(-n2c(O)c3ncnc-3c3cccnc32)cc1` it was below 4.52.
Still for that read-out and setting: next, `O=C(O)Cn1cnc2c3cccnc3n(-c3ccccc3)c(=O)c21`: below 4.52; `CCCCCCn1cnc2c3cccnc3n(-c3ccccc3)c(=O)c21`: below 4.52; `CC(C)n1cnc2c(=O)n(-c3ccccc3)c3ncccc3c21`: below 4.52.
For `Oc1c2ncnc-2c2cccnc2n1-c1ccccc1`, the MCT in data set [5] was determined as 491 s; in [3], 457 s; in [9], 483 s; in data set [10], 410 s; in data set [11], 301 s; in data set [12] it was 397 s. Also, the pIC50 in data set [6] is 4.99; in [8], 5.52; in data set [1] it was 5.66; in [13] it was 5.24. In addition, in [2], the MLD was above 300 mg/kg. The same molecule came in with an IC50 in [7] of 12 µM.
In the case of `CCCn1cnc2c3cccnc3n(-c3ccccc3)c(=O)c21`, the MLD in data set [2] was found to be 200 mg/kg. The MCT in data set [3] is recorded as 505 s. Besides, in data set [1], the pIC50 is 5.08. For the same molecule, the IC50 in data set [4] amounted to 0.52 µM.
Take `CCCCn1cnc2c3cccnc3n(-c3ccccc3)c(=O)c21`: in data set [1], the pIC50 was below 4.52.
Still for that read-out and setting: next, `COc1ccc(C2CNC(=O)C2)cc1OC1CCCC1` (stereo not given) [ROLIPRAM]: 6.47.
In the case of `Cn1c(=O)c2nc[nH]c2n(C)c1=O.O` [THEOPHYLLINE], the MCT in data set [5] is on record as 414 s; in data set [14], 389 s; in [3], 343 s.
